Where “and” joins values, the source holds several entries; their conditions need not be identical. Equal entries are not always repeated.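 Briefly, cells in 96-well plates were exposed to five compound concentrations for 48 h, and endpoints were estimated by linear interpolation. GI50 is the concentration that inhibits growth by half. Definition used: TGI = concentration required for complete inhibition of growth.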
Tests used:
Assay in all cases: NCI tumour cell line growth inhibition, 48 h
786-0 renal = test system: 786-0 renal
A498 renal = test system: A498 renal
A549 NSCLC = test system: A549 NSCLC
ACHN renal = test system: ACHN renal
BT-549 breast = test system: BT-549 breast
CAKI-1 renal = test system: CAKI-1 renal
CCRF-CEM leukemia = test system: CCRF-CEM leukemia
COLO 205 colon = test system: COLO 205 colon
DLD-1 colon = test system: DLD-1 colon
DMS 114 small cell lung = test system: DMS 114 small cell lung
DU-145 prostate = test system: DU-145 prostate
EKVX NSCLC = test system: EKVX NSCLC
HCC-2998 colon = test system: HCC-2998 colon
HCT-116 colon = test system: HCT-116 colon
HCT-15 colon = test system: HCT-15 colon
HL-60(TB) leukemia = test system: HL-60(TB) leukemia
HOP-62 NSCLC = test system: HOP-62 NSCLC
HOP-92 NSCLC = test system: HOP-92 NSCLC
HS 578T breast = test system: HS 578T breast
HT29 colon = test system: HT29 colon
IGROV1 ovarian = test system: IGROV1 ovarian
K-562 leukemia = test system: K-562 leukemia
KM12 colon = test system: KM12 colon
KM20L2 colon = test system: KM20L2 colon
LOX IMVI melanoma = test system: LOX IMVI melanoma
LXFL 529 NSCLC = test system: LXFL 529 NSCLC
M14 melanoma = test system: M14 melanoma
M19-MEL melanoma = test system: M19-MEL melanoma
MALME-3M melanoma = test system: MALME-3M melanoma
MCF7 breast = test system: MCF7 breast
MDA-MB-231 breast = test system: MDA-MB-231 breast
MDA-MB-435 = test system: MDA-MB-435
MDA-N = test system: MDA-N
MOLT-4 leukemia = test system: MOLT-4 leukemia
NCI-H226 lung = test system: NCI-H226 lung
NCI-H23 lung = test system: NCI-H23 lung
NCI-H460 lung = test system: NCI-H460 lung
NCI-H522 lung = test system: NCI-H522 lung
NCI/ADR-RES ovarian = test system: NCI/ADR-RES ovarian
OVCAR-3 ovarian = test system: OVCAR-3 ovarian
OVCAR-4 ovarian = test system: OVCAR-4 ovarian
OVCAR-5 ovarian = test system: OVCAR-5 ovarian
OVCAR-8 ovarian = test system: OVCAR-8 ovarian
PC-3 prostate = test system: PC-3 prostate
RXF 393 renal = test system: RXF 393 renal
SF-268 CNS = test system: SF-268 CNS
SF-295 CNS = test system: SF-295 CNS
SF-539 CNS = test system: SF-539 CNS
SK-MEL-2 melanoma = test system: SK-MEL-2 melanoma
SK-MEL-28 melanoma = test system: SK-MEL-28 melanoma
SK-MEL-5 melanoma = test system: SK-MEL-5 melanoma
SK-OV-3 ovarian = test system: SK-OV-3 ovarian
SN12C renal = test system: SN12C renal
SNB-19 CNS = test system: SNB-19 CNS
SNB-75 CNS = test system: SNB-75 CNS
SNB-78 CNS = test system: SNB-78 CNS
SR leukemia = test system: SR leukemia
SW-620 colon = test system: SW-620 colon
T-47D breast = test system: T-47D breast
TK-10 renal = test system: TK-10 renal
U251 CNS = test system: U251 CNS
UACC-257 melanoma = test system: UACC-257 melanoma
UACC-62 melanoma = test system: UACC-62 melanoma
UO-31 renal = test system: UO-31 renal
XF 498 CNS = test system: XF 498 CNS

CC1=CC(=C(c2ccc(N)cc2)c2ccc(N)cc2)C=CC1=N
GI50 (786-0 renal): 1.64 µM and 8.26 µM | TGI (786-0 renal): 6.53 µM and 26.1 µM and 31.7 µM | GI50 (A498 renal): 2.2 µM | TGI (A498 renal): > 27.4 µM and > 100 µM and 32.2 µM | GI50 (A549 NSCLC): 2.68 µM | TGI (A549 NSCLC): 20.1 µM and 50.6 µM and 15.9 µM | GI50 (ACHN renal): 3.9 µM and 5.01 µM | TGI (ACHN renal): 18.1 µM and 44.9 µM and 24.3 µM | GI50 (BT-549 breast): 0.679 µM and 1.63 µM | TGI (BT-549 breast): 5.47 µM and 7.09 µM and 9.14 µM | GI50 (CAKI-1 renal): 3.35 µM and 8.97 µM | TGI (CAKI-1 renal): 13.9 µM and 51.7 µM and 35.6 µM | GI50 (CCRF-CEM leukemia): 0.626 µM | TGI (CCRF-CEM leukemia): 8.16 µM and 31.3 µM | GI50 (COLO 205 colon): 0.373 µM and 1.77 µM | TGI (COLO 205 colon): 1.6 µM and 4.86 µM and 3.38 µM | TGI (DLD-1 colon): > 100 µM | TGI (DMS 114 small cell lung): 12.9 µM | GI50 (DU-145 prostate): 2.07 µM and 3.92 µM | TGI (DU-145 prostate): 15.2 µM and > 40.3 µM and 14.2 µM | GI50 (EKVX NSCLC): 1.37 µM and 2.23 µM | TGI (EKVX NSCLC): 20 µM and 70.8 µM and 41.5 µM | TGI (HCC-2998 colon): 2.21 µM and 16 µM and 18.9 µM | GI50 (HCT-116 colon): 0.457 µM and 2.8 µM | TGI (HCT-116 colon): 4.15 µM and 25.7 µM and 9.14 µM | GI50 (HCT-15 colon): 4.61 µM and 14.5 µM | TGI (HCT-15 colon): 45.1 µM and > 74.7 µM and > 100 µM | GI50 (HL-60(TB) leukemia): 0.482 µM | TGI (HL-60(TB) leukemia): 3.51 µM and > 21.6 µM | GI50 (HOP-62 NSCLC): 0.486 µM | TGI (HOP-62 NSCLC): 1.98 µM and 7.16 µM | GI50 (HOP-92 NSCLC): 0.949 µM and 3.25 µM | GI50 (HS 578T breast): 0.209 µM and 0.841 µM | GI50 (HT29 colon): 0.558 µM and 3.08 µM | TGI (HT29 colon): 10.7 µM and 29.9 µM and 11.3 µM | GI50 (IGROV1 ovarian): 4.06 µM and 5.72 µM | TGI (IGROV1 ovarian): 35.9 µM and > 57.7 µM and 35.1 µM | GI50 (K-562 leukemia): 0.369 µM | GI50 (KM12 colon): 0.557 µM and 2.72 µM | TGI (KM12 colon): 6.54 µM and 7.11 µM and 10.1 µM | TGI (KM20L2 colon): 17.6 µM | GI50 (LOX IMVI melanoma): 1.38 µM and 3.71 µM | TGI (LOX IMVI melanoma): 5.5 µM and 6.81 µM and 15 µM | TGI (LXFL 529 NSCLC): 13.6 µM | GI50 (M14 melanoma): 0.867 µM and 3.79 µM | TGI (M14 melanoma): 5.25 µM and 17.7 µM and 15.3 µM | TGI (M19-MEL melanoma): 14.5 µM | GI50 (MALME-3M melanoma): 0.771 µM | TGI (MALME-3M melanoma): 6.18 µM and 11.2 µM and 11.7 µM | GI50 (MCF7 breast): 0.803 µM and 2.32 µM | TGI (MCF7 breast): 11.4 µM and > 66.8 µM and 21.1 µM | GI50 (MDA-MB-231 breast): 2.33 µM and 2.87 µM | GI50 (MDA-MB-435): 0.969 µM | TGI (MDA-MB-435): 10.2 µM and > 44.8 µM and 15.6 µM | TGI (MDA-N): > 40.9 µM | GI50 (MOLT-4 leukemia): 1.49 µM | TGI (MOLT-4 leukemia): 6.77 µM and > 67 µM | GI50 (NCI-H226 lung): 2.16 µM and 7.35 µM | TGI (NCI-H226 lung): 16.5 µM and 19.6 µM and 46.6 µM | GI50 (NCI-H23 lung): 0.828 µM | TGI (NCI-H23 lung): 4.97 µM and 16.2 µM and 16.4 µM | GI50 (NCI-H460 lung): 0.838 µM | TGI (NCI-H460 lung): 7.3 µM and 28.9 µM and 15.8 µM | GI50 (NCI-H522 lung): 1.8 µM and 2.26 µM | TGI (NCI-H522 lung): 17.8 µM and 7.03 µM | GI50 (NCI/ADR-RES ovarian): 9.31 µM and 25.7 µM | TGI (NCI/ADR-RES ovarian): 46.6 µM and 61.9 µM and > 100 µM | GI50 (OVCAR-3 ovarian): 1.41 µM and 2.14 µM | TGI (OVCAR-3 ovarian): 5.49 µM and 15.1 µM and 5.5 µM | GI50 (OVCAR-4 ovarian): 2.51 µM and 5.01 µM | TGI (OVCAR-4 ovarian): 14.3 µM and > 55.2 µM and 71.6 µM | GI50 (OVCAR-5 ovarian): 3.42 µM | TGI (OVCAR-5 ovarian): 14.4 µM and > 71.9 µM and > 100 µM | GI50 (OVCAR-8 ovarian): 0.759 µM and 1.51 µM | TGI (OVCAR-8 ovarian): 34.5 µM and 31.4 µM and 12.4 µM | GI50 (PC-3 prostate): 0.553 µM and 2.58 µM | TGI (PC-3 prostate): 10.6 µM and 18.2 µM and 10.1 µM | GI50 (RXF 393 renal): 3.17 µM and 5.67 µM | TGI (RXF 393 renal): 12.2 µM and 34.5 µM and 22.9 µM | GI50 (SF-268 CNS): 0.668 µM | TGI (SF-268 CNS): 14.4 µM and 19.4 µM and 14.5 µM | GI50 (SF-295 CNS): 1.03 µM and 1.32 µM | TGI (SF-295 CNS): 5.82 µM and 7.65 µM and 6.06 µM | GI50 (SF-539 CNS): 0.632 µM and 2.32 µM | TGI (SF-539 CNS): 8.36 µM and 9.18 µM and 16.9 µM | GI50 (SK-MEL-2 melanoma): 2.32 µM and 2.71 µM | TGI (SK-MEL-2 melanoma): 7.73 µM and 12.2 µM and 5.84 µM | GI50 (SK-MEL-28 melanoma): 0.789 µM and 4.57 µM | TGI (SK-MEL-28 melanoma): 7.89 µM and 36.8 µM and 19.6 µM | GI50 (SK-MEL-5 melanoma): 0.928 µM | TGI (SK-MEL-5 melanoma): 2.3 µM and 5.45 µM and 3.41 µM | GI50 (SK-OV-3 ovarian): 2.44 µM and 4 µM | TGI (SK-OV-3 ovarian): 8.04 µM and 25.2 µM and 17.2 µM | GI50 (SN12C renal): 0.422 µM and 0.456 µM | TGI (SN12C renal): 13.5 µM and 10 µM and 69.3 µM | GI50 (SNB-19 CNS): 0.494 µM | TGI (SNB-19 CNS): 14.4 µM and 20.1 µM and 28.1 µM | GI50 (SNB-75 CNS): 0.428 µM and 0.455 µM and 2.31 µM | TGI (SNB-78 CNS): 9.89 µM | TGI (SR leukemia): > 58.8 µM | GI50 (SW-620 colon): 0.668 µM and 3.25 µM | TGI (SW-620 colon): 11.8 µM and 38.8 µM and 16 µM | GI50 (T-47D breast): 0.27 µM and 1.31 µM | TGI (T-47D breast): 2.73 µM and 11.8 µM and 8.81 µM | GI50 (TK-10 renal): 2.99 µM and 4.98 µM | TGI (TK-10 renal): 15.6 µM and 50.2 µM and 19.5 µM | GI50 (U251 CNS): 0.316 µM and 0.455 µM and 0.538 µM | TGI (U251 CNS): 5.38 µM and > 36 µM and 13 µM | GI50 (UACC-257 melanoma): 2.4 µM and 3.1 µM | TGI (UACC-257 melanoma): 14.4 µM and 19 µM and 10.7 µM | GI50 (UACC-62 melanoma): 1.3 µM and 3.09 µM | TGI (UACC-62 melanoma): 5.53 µM and 18.3 µM and 16.1 µM | GI50 (UO-31 renal): 9.52 µM and 14.9 µM | TGI (UO-31 renal): 55.6 µM and 50.5 µM and 41.3 µM | TGI (XF 498 CNS): 10.3 µM

— PubChem BioAssay (NCI)
